# Measured values: publication PMC9026428, “New Peptide Based Fluconazole Conjugates with Expanded Molecular Targets” (Pharmaceutics, 2022)
# Non-standard residues stand in square brackets, D forms with d. Residues, ends and D or L forms follow the SMILES beside them. *: point of attachment. X1 = O=C(CCCC(=O)*)OC(Cn1cncn1)(Cn1cncn1)c1ccc(F)cc1F; Nle = CCCC[C@H](N)C(=O)O
# Columns and labels:
# Test in all cases: microbe, parasite or virus in culture
# [1] = test system: Candida albicans 190; conditions: 37 °C; for MIC50 / MIC90: C. albicans 190 (fluconazole-resistant clinical isolate), RPMI 1640/MOPS pH 7.0, 24 h, triplicate; for MIC50: at least 50% growth inhibition vs growth control; for MIC90: lowest concentration with no visible growth
# Description: (§1) The assessment of antifungal potential of synthesized agents was carried out using four reference strains (C. albicans ATCC 10231, C. albicans SC5314, C. glabrata DSM […] and C. krusei DSM […]) and six clinical isolates of fluconazole-resistant C. albicans that were provided by the Hospital of Medical University of Gdansk, Poland. Moreover, four C. albicans isolates, assigned as B3, B4, Gu4 and Gu5, were used for investigation whether the synthesized fluconazole derivatives were effectively removed from the yeast cells by the drug efflux transporters, as in the case of fluconazole. These strains were kindly provided by Prof. Joachim Morschhäuser from University of Würzburg (Würzburg, Germany). Strains Gu4 and B3 were fluconazole-sensitive isolates obtained from early infection episodes, while Gu5 and B4 were the corresponding fluconazole-resistant isolates obtained from later episodes in the same patients treated with fluconazole. The lack of susceptibility of the Gu5 strain to fluconazole was a consequence of overexpression of CDR1/2 genes encoding ABC transporters, whereas the resistance of B4 strain was caused by overexpression of the MDR1 gene encoding a membrane transport protein of the major facilitator superfamily (MFS). All of these Candida spp. strains were maintained on YPD agar plates (1% (w/v) yeast extract, 2% (w/v) peptone, 2% (w/v) glucose, 2% (w/v) agar) at 30 °C for 16–24 h. For all of the assays aimed at assessing the antifungal potential of the synthesized agents, the yeasts were cultivated at 37 °C in RPMI 1640 medium (with L-glutamine, without sodium bicarbonate, Sigma-Aldrich, Darmstadt, Germany)) buffered to a pH of 7.0 with 0.165 M morpholinepropanesulfonic acid (MOPS) buffer (Sigma-Aldrich). In this study, we used the human foreskin fibroblast cell line Hs27 (ATCC CRL 1634TM) and the human endothelial cell line HUVEC (C2519A), purchased from Lonza Group AG, (Basel, Switzerland). The Hs27 cells were maintained in cell media consisting of Dulbecco’s modified Eagles medium (DMEM), (Corning, Arizona, USA) with 10% fetal bovine serum (FBS), (Corning, Port Elizabeth, South Africa), 1% penicillin/streptomycin (Sigma-Aldrich Inc., Darmstadt, Germany), and 1% L-glutamine (Corning, Arizona, USA). The human endothelial cell line was maintained in cell media consisting of Endothelial Cell Growth Medium-2 Single Quots Kit (Lonza, USA). Both cell lines were cultured in an incubator at 37 °C and 5% CO2.
# (§2) Antifungal activity of the tested compounds against yeast cells was determined in 96-well plates as described in the CLSI document M27-A3 [39], with minor modifications (CLSI, 2008). […] The plates were incubated for 24 h at 37 °C. Each test was performed in triplicate. The final concentration of DMSO was ensured to be around 1% in all experiments.
# (§3) For determination of minimum fungicidal concentrations (MFC), small aliquots of suspensions (around 10 μL) from each well were transferred using the pipette to YPD agar plates without inhibitors and incubated for 24 h at 37 °C.
# [2] = test system: Candida krusei DSM 11226; conditions: C. krusei DSM 11226, 37 °C; for MIC50 / MIC90: RPMI 1640/MOPS pH 7.0, 24 h, triplicate; for MIC50: at least 50% growth inhibition vs growth control; for MIC90: lowest concentration with no visible growth
# Description: as §1, §2, §3
# [3] = test system: Candida albicans 247; conditions: 37 °C; for MIC50 / MIC90: C. albicans 247 (fluconazole-resistant clinical isolate), RPMI 1640/MOPS pH 7.0, 24 h, triplicate; for MIC50: at least 50% growth inhibition vs growth control; for MIC90: lowest concentration with no visible growth
# Description: as §1, §2, §3
# [4] = test system: Candida albicans Gu4; conditions: 37 °C; for MIC50 / MIC90: C. albicans Gu4 (fluconazole-sensitive isolate), RPMI 1640/MOPS pH 7.0, 24 h, triplicate; for MIC50: at least 50% growth inhibition vs growth control; for MIC90: lowest concentration with no visible growth
# Description: as §1, §2, §3
# [5] = test system: Candida albicans B3; conditions: 37 °C; for MIC50 / MIC90: C. albicans B3 (fluconazole-sensitive isolate), RPMI 1640/MOPS pH 7.0, 24 h, triplicate; for MIC50: at least 50% growth inhibition vs growth control; for MIC90: lowest concentration with no visible growth
# Description: as §1, §2, §3
# [6] = test system: Candida albicans B4; conditions: 37 °C; for MIC50 / MIC90: C. albicans B4 (fluconazole-resistant, MDR1 overexpression), RPMI 1640/MOPS pH 7.0, 24 h, triplicate; for MIC50: at least 50% growth inhibition vs growth control; for MIC90: lowest concentration with no visible growth
# Description: as §1, §2, §3
# [7] = test system: Candida albicans 48; conditions: 37 °C; for MIC50 / MIC90: C. albicans 48 (fluconazole-resistant clinical isolate), RPMI 1640/MOPS pH 7.0, 24 h, triplicate; for MIC50: at least 50% growth inhibition vs growth control; for MIC90: lowest concentration with no visible growth
# Description: as §1, §2, §3
# [8] = test system: Candida albicans Gu5; conditions: C. albicans Gu5 (fluconazole-resistant, CDR1/2 overexpression), RPMI 1640/MOPS pH 7.0, 24 h, 37 °C, triplicate; for MIC50: at least 50% growth inhibition vs growth control; for MIC90: lowest concentration with no visible growth
# Description: as §1, §2, §3
# [9] = test system: Candida albicans SC 5314; conditions: C. albicans SC 5314, 37 °C; for MIC50 / MIC90: RPMI 1640/MOPS pH 7.0, 24 h, triplicate; for MIC50: at least 50% growth inhibition vs growth control; for MIC90: lowest concentration with no visible growth; for MFC: aliquots plated on YPD agar, 24 h, lowest concentration with no colony growth
# Description: as §1, §2, §3
# [10] = test system: Candida albicans 138; conditions: 37 °C; for MIC50 / MIC90: C. albicans 138 (fluconazole-resistant clinical isolate), RPMI 1640/MOPS pH 7.0, 24 h, triplicate; for MIC50: at least 50% growth inhibition vs growth control; for MIC90: lowest concentration with no visible growth
# Description: as §1, §2, §3
# [11] = test system: Candida albicans 574; conditions: C. albicans 574 (fluconazole-resistant clinical isolate), RPMI 1640/MOPS pH 7.0, 24 h, 37 °C, triplicate; for MIC50: at least 50% growth inhibition vs growth control; for MIC90: lowest concentration with no visible growth
# Description: as §1, §2, §3
# [12] = test system: Candida albicans ATCC 10231; conditions: C. albicans ATCC 10231, 37 °C; for MIC50 / MIC90: RPMI 1640/MOPS pH 7.0, 24 h, triplicate; for MIC50: at least 50% growth inhibition vs growth control; for MIC90: lowest concentration with no visible growth
# Description: as §1, §2, §3
# [13] = aliquots plated on YPD agar, 24 h, lowest concentration with no colony growth
SMILES,MIC50 [1] [µM],MIC90 [1] [µM],MIC50 [2] [µM],MIC90 [2] [µM],MIC50 [3] [µM],MIC90 [3] [µM],MIC50 [4] [µM],MIC90 [4] [µM],MIC50 [5] [µM],MIC90 [5] [µM],MIC50 [6] [µM],MIC90 [6] [µM],MIC50 [7] [µM],MIC90 [7] [µM],MIC50 [8] [µM],MIC90 [8] [µM],MIC50 [9] [µM],MIC90 [9] [µM],MFC [9] [µM],MIC50 [10] [µM],also measured
"CCCC[C@H](NC(=O)CCCC(=O)OC(Cn1cncn1)(Cn1cncn1)c1ccc(F)cc1F)C(=O)N[C@@H](Cc1ccccc1)C(=O)N[C@@H](CCCCN)C(=O)N[C@@H](CS)C(=O)N[C@@H](CCCNC(=N)N)C(=O)N[C@@H](CCCNC(=N)N)C(=O)N[C@@H](Cc1c[nH]c2ccccc12)C(=O)N[C@@H](CCC(N)=O)C(=O)N[C@@H](Cc1c[nH]c2ccccc12)C(=O)N[C@@H](CCCNC(=N)N)C(=O)N[C@@H](CCCC)C(=O)N[C@@H](CCCCN)C(=O)N[C@@H](CCCCN)C(=O)N[C@@H](CC(C)C)C(=O)NCC(N)=O [FLCpOH-LFacinB[Nle^1,11]-NH2] (X1-[Nle]FKCRRWQWR[Nle]KKLG-NH2)",90,125,31,62,45,62,125,250,45,62,250,>250,250,>250,>250,>250,23,31,250,23,MIC90 [10]: 31 µM; MIC50 [11]: 45 µM; MIC90 [11]: 62 µM; MIC50 [12]: 45 µM; MIC90 [12]: 62 µM
CC[C@H](C)[C@H](NC(=O)[C@H](CCCCN)NC(=O)[C@H](CCCCN)NC(=O)[C@H](C)NC(=O)[C@H](CC(C)C)NC(=O)[C@H](C)NC(=O)[C@H](C)NC(=O)[C@H](CC(C)C)NC(=O)[C@H](C)NC(=O)[C@H](CCCCN)NC(=O)[C@H](CC(C)C)NC(=O)[C@H](CC(N)=O)NC(=O)[C@@H](NC(=O)[C@H](CCCCN)NC(=O)CNC(=O)[C@H](CC(C)C)NC(=O)[C@H](CC(C)C)NC(=O)[C@H](Cc1ccc(O)cc1)NC(=O)CNC(=O)[C@H](C)NC(=O)CCCC(=O)OC(Cn1cncn1)(Cn1cncn1)c1ccc(F)cc1F)[C@@H](C)CC)C(=O)N[C@@H](CC(C)C)C(N)=O [FLCpOH-TP10-NH2],45,62,62,125,45,62,45,62,31,62,62,125,45,62,62,125,8,15,31,45,"MFC ([1]; C. albicans 190, aliquots plated on YPD agar, 24 h, lowest concentration with no colony growth): 250 µM; MFC [2, 13]: 250 µM; MFC ([3]; C. albicans 247, aliquots plated on YPD agar, 24 h, lowest concentration with no colony growth): 250 µM; MFC ([4]; C. albicans Gu4, aliquots plated on YPD agar, 24 h, lowest concentration with no colony growth): 62 µM; MFC ([5]; C. albicans B3, aliquots plated on YPD agar, 24 h, lowest concentration with no colony growth): 62 µM; MFC ([6]; C. albicans B4, aliquots plated on YPD agar, 24 h, lowest concentration with no colony growth): 125 µM; MFC ([7]; C. albicans 48, aliquots plated on YPD agar, 24 h, lowest concentration with no colony growth): 250 µM; MIC90 [10]: 62 µM; MFC ([10]; C. albicans 138, aliquots plated on YPD agar, 24 h, lowest concentration with no colony growth): 250 µM; MIC50 [11]: 45 µM; MIC90 [11]: 62 µM; MIC50 [12]: 15 µM; MIC90 [12]: 31 µM; MFC [12, 13]: 62 µM"
